Patent publication US6770292B2, “Pharmaceutical compositions for oral administration” (Capsules, priority 2000, dated 2004)

System: blood calcium
Experiment: Blood calcium (calcemia) in rats after administration of calcitonin compositions
Format: in vivo, female Wistar rats
Conditions: oral, 72 IU per animal, FIG. 5
Protocol: The study was carried out on female Wistar rats weighing 150 g, divided into groups of 4 rats. Oral administration was effected using an esophageal tube in a volume of 300 μl, corresponding to […] administered per animal.
A volume of 100 μl of an aqueous solution of calcitonin with a titer of 20 IU/ml, corresponding to a dose of 2 IU of calcitonin per animal, was administered subcutaneously to a positive control group.
A volume of 300 μl of an aqueous solution of calcitonin with a titer of 240 IU/ml, corresponding to 72 IU per animal, was administered orally to a negative control group.
The animals were fasted (water diet) 24 hours before the experiment. Blood samples were taken retro-orbitally under general anesthetic at T0 (before administration), T0+1 h, T0+2 h or T0+3 h, T0+5 h. 50 μl of blood are collected in microcapillary tubes containing heparin.
The blood calcium and pH are measured immediately after sample collection, directly in the microcapillary tube, by means of a CIBA-CORNING model 634 automatic analyzer to give the calcemia.

calcitonin [non-encapsulated calcitonin solution]
decrease of calcemia: not observed
